Our source for the GI50 and TGI values is PubChem BioAssay (NCI).

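1) Cells in 96-well plates. 2) Compound, 48 h, 5 concentrations. 3) Linear interpolation between surrounding doses. 4) Unreached endpoint = highest concentration. GI50 is the concentration that inhibits growth by half. The concentration for full growth arrest is given as TGI.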

Some test systems named below: HS 578T breast; A549 NSCLC; HCC-2998 colon; TK-10 renal; A498 renal; PC-3 prostate; DU-145 prostate; OVCAR-4 ovarian; SK-MEL-28 melanoma; K-562 leukemia.
Holding throughout (experiment): inhibition of tumour cell growth, NCI panel, 48 h

As to `COc1ccc2cc(C(=O)N3CCC([C@@H](C)C(=O)NCc4ccc5c(c4)OCO5)CC3)[nH]c2c1`, the GI50 in the experiment with HS 578T breast was 27.9 µM; with A549 NSCLC it was more than 100 µM; with HCC-2998 colon, more than 100 µM; in the experiment with TK-10 renal, more than 100 µM; in the experiment on A498 renal, more than 100 µM; in the experiment on PC-3 prostate, more than 100 µM. The GI50 is more than 100 µM with DU-145 prostate, more than 100 µM in the experiment on OVCAR-4 ovarian, more than 100 µM in the experiment with SK-MEL-28 melanoma and 79.4 µM in the experiment with K-562 leukemia. Moreover, the TGI in the experiment on HS 578T breast, in the experiment with A549 NSCLC, with HCC-2998 colon, in the experiment on TK-10 renal, in the experiment on A498 renal and in the experiment with PC-3 prostate was more than 100 µM in each case. Besides, the TGI in the experiment on DU-145 prostate, with OVCAR-4 ovarian, in the experiment with SK-MEL-28 melanoma and in the experiment on K-562 leukemia was more than 100 µM each time.

For the compound `O=C(O)c1nn(-c2ccc(Cl)cc2)c2c1C(=O)c1ccccc1C2=O`, the TGI in the experiment with HS 578T breast, with A549 NSCLC, in the experiment on HCC-2998 colon, with TK-10 renal, with A498 renal and in the experiment on PC-3 prostate was more than 100 µM in each case. The TGI in the experiment on DU-145 prostate, in the experiment on OVCAR-4 ovarian, with SK-MEL-28 melanoma and in the experiment on K-562 leukemia was more than 100 µM throughout.

For `COc1nc2c(c(=O)n1C)CN(c1ccccc1)C(=O)CN2C`, the GI50 was 13 µM in the experiment with HS 578T breast; more than 100 µM in the experiment with A549 NSCLC; more than 100 µM with HCC-2998 colon; 51.1 µM in the experiment with TK-10 renal; 20 µM with PC-3 prostate; 61.1 µM in the experiment on DU-145 prostate. Further, the GI50 in the experiment on OVCAR-4 ovarian was 71.2 µM; with SK-MEL-28 melanoma, 70 µM; in the experiment on K-562 leukemia it was 59.7 µM. Besides, the TGI in the experiment on HS 578T breast was 73.4 µM; in the experiment with A549 NSCLC, more than 100 µM; in the experiment with HCC-2998 colon, more than 100 µM; in the experiment on TK-10 renal it was more than 100 µM; in the experiment on PC-3 prostate it was more than 100 µM; in the experiment on DU-145 prostate it was more than 100 µM. Moreover, the TGI in the experiment with OVCAR-4 ovarian, in the experiment on SK-MEL-28 melanoma and in the experiment with K-562 leukemia was more than 100 µM in each case.

Turning to `CN1CCN(c2ccncc2S(=O)(=O)N2CCN(C)CC2)CC1`, the TGI in the experiment with HS 578T breast, in the experiment with A549 NSCLC, with TK-10 renal, in the experiment on A498 renal, in the experiment with PC-3 prostate and with DU-145 prostate was more than 100 µM throughout. Besides, the TGI in the experiment with OVCAR-4 ovarian, with SK-MEL-28 melanoma and with K-562 leukemia was more than 100 µM throughout.

On to `Cc1cc2[nH]c(=O)c3c4ncccc4cn3c2cc1C`, for which the GI50 with HS 578T breast is 5.93 µM; in the experiment with A549 NSCLC it was 4.82 µM; in the experiment with HCC-2998 colon, 2.59 µM; with TK-10 renal it was 4.36 µM; in the experiment with A498 renal, 9.38 µM; with PC-3 prostate, 5.83 µM. Further, the GI50 was 4.13 µM with DU-145 prostate, 4.17 µM in the experiment on OVCAR-4 ovarian, 4.7 µM in the experiment on SK-MEL-28 melanoma and 2.54 µM with K-562 leukemia. Also, the TGI in the experiment on HS 578T breast was 52.2 µM; in the experiment with A549 NSCLC it was more than 100 µM; in the experiment with HCC-2998 colon, 7.97 µM; with TK-10 renal, 61.8 µM; in the experiment with A498 renal, 84.5 µM; in the experiment with PC-3 prostate it was more than 100 µM. The TGI with DU-145 prostate, with OVCAR-4 ovarian, in the experiment on SK-MEL-28 melanoma and with K-562 leukemia was more than 100 µM each time.

Take `CC(=O)CCc1ccc(Oc2c3ccccc3nc3occc23)cc1`: the GI50 with HS 578T breast is 20.4 µM; in the experiment with A549 NSCLC, 15.6 µM; in the experiment on TK-10 renal, 15.4 µM; in the experiment with A498 renal, 15.8 µM; in the experiment on PC-3 prostate, 14 µM; in the experiment with DU-145 prostate, 14.8 µM. The GI50 with OVCAR-4 ovarian is 37.6 µM; with SK-MEL-28 melanoma it was 22.9 µM; in the experiment with K-562 leukemia, 25.2 µM. Moreover, the TGI came out at 44.5 µM with HS 578T breast; 35.2 µM in the experiment with A549 NSCLC; 43.9 µM in the experiment on TK-10 renal; 29.2 µM in the experiment with A498 renal; 41 µM in the experiment with PC-3 prostate; 34.1 µM in the experiment with DU-145 prostate. Further, the TGI is more than 100 µM with OVCAR-4 ovarian, 46.7 µM in the experiment with SK-MEL-28 melanoma and more than 100 µM in the experiment with K-562 leukemia.

Turning to `CCCCNC(=O)Oc1ccc(/C(=C(\C)c2ccc(OC)cc2)c2ccc(OCCN3CCCCC3)cc2)cc1`, the GI50 is 2.14 µM with HS 578T breast; 4.15 µM with A549 NSCLC; 3.31 µM in the experiment on HCC-2998 colon; 9.41 µM in the experiment on TK-10 renal; 2.35 µM with PC-3 prostate; 6.5 µM in the experiment with DU-145 prostate. The results for the GI50 with OVCAR-4 ovarian, with SK-MEL-28 melanoma and in the experiment with K-562 leukemia were 2.29 µM, 1.75 µM and 1.49 µM, respectively. Also, the TGI stood at 4.82 µM in the experiment with HS 578T breast; 16 µM in the experiment on A549 NSCLC; 11.5 µM in the experiment on HCC-2998 colon; 23.3 µM in the experiment with TK-10 renal; 7.03 µM with PC-3 prostate; 21.4 µM in the experiment on DU-145 prostate. For the same compound, the TGI in the experiment with OVCAR-4 ovarian is 8.2 µM; in the experiment with SK-MEL-28 melanoma, 3.4 µM; with K-562 leukemia it was 4.65 µM.

For the compound `N[C@@H](Cc1c[nH]c2ccccc12)C(=O)NC1CCN(Cc2c[nH]c3ccc(Cl)cc23)CC1`, the GI50 was 7.63 µM in the experiment on HS 578T breast; 13.9 µM in the experiment with A549 NSCLC; 3.3 µM with HCC-2998 colon; 13.4 µM in the experiment with TK-10 renal; 6.01 µM in the experiment with PC-3 prostate; 8.76 µM in the experiment with DU-145 prostate. In addition, the GI50 in the experiment on OVCAR-4 ovarian was 8.14 µM; with SK-MEL-28 melanoma it was 1.99 µM; in the experiment with K-562 leukemia it was 2.72 µM. Besides, the TGI in the experiment with HS 578T breast stood at 24.5 µM; with A549 NSCLC it was 27.5 µM; in the experiment on HCC-2998 colon, 13.4 µM; in the experiment on TK-10 renal it was 27.2 µM; in the experiment with PC-3 prostate, 19.9 µM; in the experiment on DU-145 prostate, 21.2 µM. Further, the TGI in the experiment on OVCAR-4 ovarian worked out at 22 µM; in the experiment on SK-MEL-28 melanoma, 4.48 µM; in the experiment with K-562 leukemia, 12.5 µM.
